Laboratory results reported in US20230129745A1, “COMPOUNDS, COMPOSITIONS, AND METHODS TO TREAT METABOLIC DISEASE” (Board of Supervisors of Louisiana State University and …, priority 2020, published 2023).

Legend:
3T3-L1 cells = assay: Lipid accumulation (Oil Red O) in differentiating 3T3-L1 cells; assay type: cell-based, murine; conditions: for dose dependence of lipid accumulation activity / lipid accumulation (Oil Red O staining): 2.5, 10, and 25 μM; for lipid accumulation (Oil Red O staining): relative to DMSO; for adipogenesis (Oil Red O and AdipoQ, Fabp4, Pparγ expression): 2.5, 10, or 25 μM, half-strength MDI, FIG. 27
Experimental: Cells were then either fixed and stained with Oil Red O (4 days post-differentiation) (panel A), or harvested (3 days post differentiation) for RNA isolation and gene expression analysis of adiponectin (AdipoQ), fatty acid binding protein 4 (Fabp4), or Ppary (panels B-D). All treatments compared to their respective DMSO controls. The Effects of SCO and ROSI were analyzed by t-test, while the effects of individual test compounds were analyzed by one-way ANOVA. *[…], **P<0.01, ***P<0.001, ****P<0.0001 vs DMSO controls.
Cell Culture and Treatments. 3T3-L1 preadipocytes (murine) were cultured as previously described,^3 and induced to differentiate two days after reaching confluence. For experiments using mature adipocytes, cells were induced with a standard methylxanthine-dexamethasone-insulin (MDI) cocktail, which contains 0.5 mM isobutylmethylxanthine (IBMX), 1 μM dexamethasone (DEX), and 1.72 μM insulin in high-glucose Dulbecco's Modified Eagle Medium (DMEM) supplemented with 10% fetal bovine serum (FBS). IBMX, DEX, insulin, and DMEM were obtained from Sigma-Aldrich (St. Louis, Mo.), and FBS from Hyclone (GE Healthcare Life Sciences, Logan, Utah). For differentiation experiments, cells were induced with half-strength MDI cocktail […]. In both cases, cells were fed with high-glucose DMEM+10% FBS with 0.43 μM insulin three days following MDI induction. Test compounds were dissolved in dimethylsulfoxide (DMSO) as 1000× stocks. For differentiation experiments, cells were treated with the compounds (or DMSO vehicle as a control) at the time of induction and at the first feeding there after (3 days post-MDI). For lipolysis experiments on mature adipocytes, cells were fed with high-glucose DMEM+10% FBS 6 days after MDI and treated with test compounds or DMSO vehicle for three days. On the third day cells were also treated overnight with 0.75 nM tumor necrosis factor alpha (TNFα) (Life Technologies, Carlsbad, Calif.) or its vehicle [0.1% bovine serum albumin (BSA) in phosphate buffered saline (PBS)]. The following morning, the culture medium was replaced with lipolysis incubation medium (low-glucose DMEM+2% BSA) and 0.75 nM TNFα(or vehicle). After 4 hours, conditioned medium and cell lysates were collected.
Lipid Accumulation Assay. Five days after MDI induction, cell monolayers were fixed in 10% neutral buffered formalin (ThermoFisher, Waltham, Mass.) and stained with the neutral lipid stain, Oil Red O (ORO). Plates were scanned to generate images of staining. The ORO was then eluted in isopropyl alcohol, and absorbance of eluates was measured at 520 nm for quantitation.

3T3-L1 adipocytes [1] = assay: TNFα-induced lipolysis (glycerol release) in 3T3-L1 adipocytes; assay type: cell-based, murine; conditions: 2.5, 10, or 25 μM, 3-day pretreatment; 0.75 nM TNFα
Experimental: Fully differentiated 3T3-L1 adipocytes pretreated for three days with 50 μg/ml SCO or varying doses of test compounds (2.5, 10, or 25 μM), then overnight with 0.75 nM TFNα (or vehicle). After 4 hours, the conditioned medium was collected and assayed for glycerol. Data was expressed as fold-change vs TNFα-only treatment. Data from no-TNFα controls and each test compound were analyzed by one-way ANOVA. **P<0.01, ****P<0.0001 vs TNFα-only condition.
Cell Culture and Treatments. 3T3-L1 preadipocytes (murine) were cultured as previously described,^3 and induced to differentiate two days after reaching confluence. For experiments using mature adipocytes, cells were induced with a standard methylxanthine-dexamethasone-insulin (MDI) cocktail, which contains 0.5 mM isobutylmethylxanthine (IBMX), 1 μM dexamethasone (DEX), and 1.72 μM insulin in high-glucose Dulbecco's Modified Eagle Medium (DMEM) supplemented with 10% fetal bovine serum (FBS). IBMX, DEX, insulin, and DMEM were obtained from Sigma-Aldrich (St. Louis, Mo.), and FBS from Hyclone (GE Healthcare Life Sciences, Logan, Utah). […]
FABP4 secretion and lipolysis assays. […] Conditioned media samples were collected after four hours and analyzed for FAPB4 content by immunoblotting. Lipolysis was also assessed by measuring glycerol concentrations in the samples, using free glycerol reagent from Sigma-Aldrich.

[2] = LC-MS of serum from mice fed HFD containing 1% Artemisia scoparia extract; assay type: in vivo; conditions: archived serum, SCO feeding study in high fat-fed mice, after 4-hour fast
Experimental: Serum samples of control or SCO-treated mice were analyzed directly without enzyme hydrolysis after protein precipitation (top 2 panels) or after glucuronidase enzyme digestion followed by solvent partitioning (lower 2 panels). Chromatograms were created using selected ion monitoring of m/z 315.159-315.161 specific to capillartemisins. In addition to specific mass, the identity of capillartemisin A was confirmed using our in-house library of spectral data that was confirmed using NMR spectroscopy.
To conduct in vivo assessments of SP's bioavailability or pharmacokinetics, we sent six-year-old archived serum samples from our last SCO feeding study in high fat-fed mice for analysis. These samples were collected at the time of sacrifice after a 4-hour fast, in conditions that were not designed for detection of SCO compounds in the circulation. […] However, capillartemisin A was detected (FIG. 12).

[3] = 14 days of treatment, db/db mice; cited from earlier work
3T3-L1 adipocytes [4] = conditions: published data; cited from earlier work
PPARγ = target: T1, PPARγ (Homo sapiens, UniProt P37231); conditions: Choi et al. 2011; cited from earlier work
T1 construct: NIH-3T3 cells stably transfected with full-length PPARγ (A); expressed in transfected cells
T1 sequence (P37231 1-505): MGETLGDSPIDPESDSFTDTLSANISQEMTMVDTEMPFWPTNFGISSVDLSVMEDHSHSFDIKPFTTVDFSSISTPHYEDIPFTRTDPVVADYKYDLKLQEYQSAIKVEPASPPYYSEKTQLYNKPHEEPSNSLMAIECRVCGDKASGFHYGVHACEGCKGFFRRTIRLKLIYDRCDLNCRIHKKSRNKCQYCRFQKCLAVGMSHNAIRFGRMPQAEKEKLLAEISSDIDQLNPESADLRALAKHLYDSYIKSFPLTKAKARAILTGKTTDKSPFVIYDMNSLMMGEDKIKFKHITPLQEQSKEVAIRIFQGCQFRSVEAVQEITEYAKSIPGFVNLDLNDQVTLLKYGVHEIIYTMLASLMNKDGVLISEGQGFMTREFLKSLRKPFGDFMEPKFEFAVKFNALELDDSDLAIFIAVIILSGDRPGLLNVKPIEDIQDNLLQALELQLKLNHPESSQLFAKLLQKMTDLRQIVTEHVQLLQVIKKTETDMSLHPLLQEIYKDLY

caspase 1 = target: T2, caspase 1 (Mus musculus, UniProt P29452); conditions: literature; cited from earlier work
T2 sequence (P29452 119-402): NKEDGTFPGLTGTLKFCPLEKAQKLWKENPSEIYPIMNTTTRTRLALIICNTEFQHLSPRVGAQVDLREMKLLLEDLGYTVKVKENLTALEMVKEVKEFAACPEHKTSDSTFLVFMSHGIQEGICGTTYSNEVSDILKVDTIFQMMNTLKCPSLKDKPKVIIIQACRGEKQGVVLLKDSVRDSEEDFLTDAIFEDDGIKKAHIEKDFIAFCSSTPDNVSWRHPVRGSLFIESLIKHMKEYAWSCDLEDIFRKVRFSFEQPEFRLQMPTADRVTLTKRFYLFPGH

Structure (SMILES)	dose dependence of lipid accumulation activity (3T3-L1 cells)	lipid accumulation (Oil Red O staining) (3T3-L1 cells)	adipogenesis (Oil Red O and AdipoQ, Fabp4, Pparγ expression) (3T3-L1 cells)	inhibition of TNFα-induced lipolysis (glycerol release) (3T3-L1 adipocytes [1])	detection in serum (LC-MS) [2]	adipogenesis / adipocyte differentiation (3T3-L1 adipocytes [4])	further results
CC(C)=CCc1cc(/C=C/C(=O)O)cc(C/C=C(/C)CO)c1O [Compound 3, capillartemisin B]	best activity over the tested dose range	enhanced lipid accumulation	promote adipogenesis	not able to significantly mitigate	did not detect		
CN(CCOc1ccc(CC2SC(=O)NC2=O)cc1)c1ccccn1 (stereo not drawn) [rosiglitazone]							hematocrit [3]: decreases hematocrit by as much as three percentage points
CC(C)=CCc1cc(/C=C/C(=O)O)cc(C/C=C(\C)CO)c1O [Compound 2, capillartemisin A]	active in a dose-dependent manner	enhanced lipid accumulation	promote adipogenesis	not able to significantly mitigate	detected		
CC(C)=CCc1cc(/C=C/C(=O)O)cc(CC=C(C)C)c1O [Artepillin C]						enhance adipogenesis	PPARγ activation (PPARγ): activate
O=C(/C=C/c1ccc(O)c(O)c1)O[C@@H]1CC(O)(C(=O)O)C[C@@H](OC(=O)/C=C/c2ccc(O)c(O)c2)C1O (stereo partly drawn) [DEQA, 3,5-dicaffeoyl-epi-quinic acid]						do not promote adipogenesis	caspase 1 activity (caspase 1): reduce
